Reference: article PMC10894229, “Novel antimicrobial peptides against Cutibacterium acnes designed by deep learning” (Scientific Reports, 2024)
Read-outs that look alike come from different tables or passages of the source. Ends that are not written are not given here.

Columns and labels:
[1] = system: human keratinocytes (HaCaT); assay: HaCaT cell viability, CCK-8 assay; assay type: cell-based
Description: HaCaT (IM-H225) cells from Xiamen Immocell Biotechnology Co., Ltd were cultured in DMEM high glucose medium (4.5 g/L, Gibco, USA), supplemented with 10% fetal bovine serum (Gibco, USA), 100 U/mL of penicillin and 100 μg/mL of streptomycin in a 5% CO2 fully humidified environment at 37 °C.
Cell Counting Kit-8 (CCK-8; Biosharp, China) was used to assess the rate of cellular proliferation and quantify cell viability. In brief, HaCaT cells were seeded in 96-well plates with 100 μL of medium at a density of 1 × 10^4 cells per well. After incubation of cells overnight, peptides were added into the medium for another 24 h incubation. Then, 10 μL of CCK8 solution was applied to each well and incubated for 1 h at 37 °C. Finally, the absorbance values at 450 nm were determined using a microplate reader (SYNERGY-H1, BioTek, USA). Two columns of the plate were kept for negative control (medium only) and growth control (medium with HaCaT cell). All experiments were conducted in triplicate.

[2] = system: rabbit red blood cells (rRBCs); assay: Hemolytic activity assay; assay type: cell-based
Description: The hemolytic activity of peptides was assayed on rabbit red blood cells (rRBCs)[43]. Briefly, 2% rRBCs (150 μL) were incubated in the presence of various peptide concentrations (50 μL) at 37 °C for 2 h. After centrifugation, the supernatants were collected for measuring absorbance at 545 nm. PBS and 0.01% Triton X-100 were used as the negative (no hemolysis) and positive (100% hemolysis) control, respectively. Triplicate tests were performed.

C. acnes (BNCC 336649) = details: for Concentration with antimicrobial activity >50%: C. acnes; for Concentration with antimicrobial activity >50% / Category of in vitro test antimicrobial activity against C. acnes: supplementary Table 5; for Antimicrobial activity > 50% against C. acnes: broth microdilution, 48 h, OD 630 nm
Description: The strain of C. acnes (BNCC 336649) was cultured in Wilkins-Chalgren Anaerobe Broth (QingDao RiShui Bio-technologies, 11071) at 37 °C under an anaerobic atmosphere performed by a Labiophy HL-B automatic hypoxic workstation (Dalian, Liaoning Province, Labiophy HL-B), inflated with a gas mix of 15% carbon dioxide, 83% nitrogen, and 2% hydrogen.
Logarithmic phase growth bacteria were used for antimicrobial testing.
To determine the MIC values, the broth microdilution method was used. […] Briefly, peptide samples were prepared as a stock solution in water and then diluted. 180 μL of the bacterial suspension (10^7 CFU/mL) and 20 μL of the tested sample were added together into 96-Well Deep Well Plates and incubated 24 h for E. coli and S. aureus or 48 h for C. acnes and C. albicans. For each test, two columns of the plate were kept for sterility control (broth only) and growth control (broth with bacterial inoculums, no antibiotics). The optical density of cultures was measured at 630 nm by a microplate reader (SYNERGY-H1, BioTek, USA) to estimate bacterial growth. All experiments were conducted in triplicate. We used ciprofloxacin (CPFX) as the antibiotic control for antimicrobial testing.

Substance | Cytotoxic Index [1] | Hemolysis Index [2] | HaCaT cell tolerance up to [1] | also measured
FKRLKKLFKKIWNWK [HPA3NT3, reference compound] |  |  |  | Cytotoxic Index ([1]; ratio of EC90 (HaCaT) to MIC of C. acnes): 8; Hemolysis Index ([2]; ratio of EC90 (rabbit red blood cells) to MIC of C. acnes): 32
KKWRKVLKLIKRLVG-NH2 [AMP-12] | 16 | 40 |  | 
GWAKRLATRLAKAIL-NH2 [AMP-27] | 12.8 | 6.4 | 320 µg/mL | 
KILGKLLKWASKIW [AMP-31] | 8 | 20 |  | 
LSKWLKKLGKLLAG [AMP-33] | 20 | 20 | 80 µg/mL | 
GVFDWLKKLGKKLAG [AMP-14] |  |  | 80 µg/mL | Concentration with antimicrobial activity >50% (C. acnes (BNCC 336649)): 12.5 µg/mL; Antimicrobial activity > 50% against C. acnes (C. acnes (BNCC 336649); at 25 µg/mL): Inhibit (A peptide was deemed to have antimicrobial activity if C. acnes growth was inhibited by more than 50% at a given concentration); Antimicrobial activity > 50% against C. acnes (C. acnes (BNCC 336649); at 50 µg/mL): Inhibit (A peptide was deemed to have antimicrobial activity if C. acnes growth was inhibited by more than 50% at a given concentration); Antimicrobial activity > 50% against C. acnes (C. acnes (BNCC 336649); at 100 µg/mL): Inhibit (A peptide was deemed to have antimicrobial activity if C. acnes growth was inhibited by more than 50% at a given concentration); Category of in vitro test antimicrobial activity against C. acnes (C. acnes (BNCC 336649)): Strong AMP
HFLGVVAKLVSKLF [AMP-38] | 10 | 16 | 80 µg/mL | 
KRIVHRLLKKLHSLF [AMP-9] | 20 | 30 | 160 µg/mL | 
KKLACRLWKWLAKKA [AMP-21] |  |  | 80 µg/mL | Concentration with antimicrobial activity >50% (C. acnes (BNCC 336649)): 12.5 µg/mL; Antimicrobial activity > 50% against C. acnes (C. acnes (BNCC 336649); at 25 µg/mL): Inhibit (A peptide was deemed to have antimicrobial activity if C. acnes growth was inhibited by more than 50% at a given concentration); Antimicrobial activity > 50% against C. acnes (C. acnes (BNCC 336649); at 50 µg/mL): Inhibit (A peptide was deemed to have antimicrobial activity if C. acnes growth was inhibited by more than 50% at a given concentration); Antimicrobial activity > 50% against C. acnes (C. acnes (BNCC 336649); at 100 µg/mL): Inhibit (A peptide was deemed to have antimicrobial activity if C. acnes growth was inhibited by more than 50% at a given concentration); Category of in vitro test antimicrobial activity against C. acnes (C. acnes (BNCC 336649)): Strong AMP
GIFKKITGKLFKWIK [AMP-5] | 10 | 30 | 80 µg/mL | 
AIHKLAHHIAKLAKK [AMP-35] |  |  |  | Concentration with antimicrobial activity >50% (C. acnes (BNCC 336649)): no; Antimicrobial activity > 50% against C. acnes (C. acnes (BNCC 336649); at 25 µg/mL): No (A peptide was deemed to have antimicrobial activity if C. acnes growth was inhibited by more than 50% at a given concentration); Antimicrobial activity > 50% against C. acnes (C. acnes (BNCC 336649); at 50 µg/mL): No (A peptide was deemed to have antimicrobial activity if C. acnes growth was inhibited by more than 50% at a given concentration); Antimicrobial activity > 50% against C. acnes (C. acnes (BNCC 336649); at 100 µg/mL): No (A peptide was deemed to have antimicrobial activity if C. acnes growth was inhibited by more than 50% at a given concentration); Category of in vitro test antimicrobial activity against C. acnes (C. acnes (BNCC 336649)): No AMP
KKIFKRIVKIIKRLL [AMP-29] | 16 | 32 |  | 
AKRIVKLIKNFFRKL-NH2 [AMP-25] | 20 | 60 | 80 µg/mL | 
